Measurements reported in paper PMC7044277 (Nature Communications, 2020).
pEC50, pKi: −log10 of the molar value. Values joined by “and” are separate entries in the source; they are usually repeats but may differ in a detail not shown here. Equal values may be shown once.

Experiments:
[1] = target: DRD2 (D2 long receptor) (Homo sapiens, UniProt P14416); assay: Gαi/o-mediated cAMP inhibition (GloSensor split-luciferase cAMP reporter), HEK293T; type: cell-based; conditions: DRD2;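 further: compounds applied 15 min at room temperature, then luciferin plus 400 nM isoproterenol to raise cAMP through endogenous β2-adrenergic receptors, luminescence read 15 min later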
[2] = target: DRD3 wild-type (Homo sapiens, UniProt P35462); assay: Radioligand competition binding, [3H]-N-methylspiperone; conditions: DRD3; [3H]-methylspiperone (0.8-1.0 nM); read-out: Ki
[3] = target: T1, 5HT1F (Homo sapiens, UniProt P30939); assay: β-arrestin2 recruitment (Tango); type: cell-based; conditions: for β-arrestin2 recruitment response, agonist mode (single replicate values): Fig_S10j; for Fig_S10j dose-response, drug alone (agonist mode), β-arrestin2 recruitment: single replicate values
T1 construct: expressed in transfected cells; host or cells: HTLA cells expressing TEV-fused β-arrestin2
T1 sequence (P30939 1-366): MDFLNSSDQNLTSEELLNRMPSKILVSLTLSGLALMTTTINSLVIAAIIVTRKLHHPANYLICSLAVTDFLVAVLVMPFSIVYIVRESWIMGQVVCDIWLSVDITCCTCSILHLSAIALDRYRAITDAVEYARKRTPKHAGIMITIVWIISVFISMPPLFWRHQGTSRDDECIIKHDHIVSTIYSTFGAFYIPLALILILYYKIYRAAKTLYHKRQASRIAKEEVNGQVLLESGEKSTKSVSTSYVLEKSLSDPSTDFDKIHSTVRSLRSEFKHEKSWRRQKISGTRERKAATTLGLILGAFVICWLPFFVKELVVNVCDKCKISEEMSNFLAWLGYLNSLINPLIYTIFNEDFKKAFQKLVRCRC

[4] = target: T2, 5HT4 (Homo sapiens, UniProt Q13639); assay: β-arrestin2 recruitment (Tango); type: cell-based; conditions: Fig_S10n; for β-arrestin2 recruitment response in presence of serotonin (replicate values): +10μM serotonin; for β-arrestin2 recruitment response (dose-response source data, replicate values): drug alone
T2 construct: expressed in transfected cells; host or cells: HTLA cells expressing TEV-fused β-arrestin2

[5] = target: DRD3 (Homo sapiens, UniProt P35462); assay: β-arrestin2 recruitment (Tango); type: cell-based; conditions: for response, concentration-response data point (replicates): Fig_S10b, drug alone
Sequence of DRD3 (P35462 whole entry): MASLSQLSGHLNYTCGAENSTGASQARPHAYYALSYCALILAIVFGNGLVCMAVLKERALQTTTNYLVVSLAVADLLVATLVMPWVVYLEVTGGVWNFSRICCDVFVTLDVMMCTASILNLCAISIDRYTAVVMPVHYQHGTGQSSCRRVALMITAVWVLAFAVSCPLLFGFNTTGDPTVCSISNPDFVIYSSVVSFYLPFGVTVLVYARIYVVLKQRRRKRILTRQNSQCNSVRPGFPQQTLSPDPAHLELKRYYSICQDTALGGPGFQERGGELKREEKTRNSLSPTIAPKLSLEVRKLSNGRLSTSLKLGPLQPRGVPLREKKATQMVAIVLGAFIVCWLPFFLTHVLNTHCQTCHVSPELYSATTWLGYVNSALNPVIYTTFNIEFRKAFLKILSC

Sequence of DRD2 (D2 long receptor) (P14416 whole entry): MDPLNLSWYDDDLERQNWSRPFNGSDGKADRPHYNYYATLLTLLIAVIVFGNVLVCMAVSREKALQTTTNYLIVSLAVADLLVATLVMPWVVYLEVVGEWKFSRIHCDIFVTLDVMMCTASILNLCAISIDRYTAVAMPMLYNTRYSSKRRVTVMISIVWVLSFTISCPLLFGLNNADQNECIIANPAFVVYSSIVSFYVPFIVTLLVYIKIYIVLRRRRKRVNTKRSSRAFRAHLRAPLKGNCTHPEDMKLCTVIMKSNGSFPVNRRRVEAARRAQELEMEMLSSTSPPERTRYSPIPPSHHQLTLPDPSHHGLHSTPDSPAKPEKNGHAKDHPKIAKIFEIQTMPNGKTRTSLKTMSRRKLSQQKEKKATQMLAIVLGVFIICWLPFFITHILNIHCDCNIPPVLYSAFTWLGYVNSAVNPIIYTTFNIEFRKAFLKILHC
T2 sequence (Q13639 whole entry, the tested form may be a part): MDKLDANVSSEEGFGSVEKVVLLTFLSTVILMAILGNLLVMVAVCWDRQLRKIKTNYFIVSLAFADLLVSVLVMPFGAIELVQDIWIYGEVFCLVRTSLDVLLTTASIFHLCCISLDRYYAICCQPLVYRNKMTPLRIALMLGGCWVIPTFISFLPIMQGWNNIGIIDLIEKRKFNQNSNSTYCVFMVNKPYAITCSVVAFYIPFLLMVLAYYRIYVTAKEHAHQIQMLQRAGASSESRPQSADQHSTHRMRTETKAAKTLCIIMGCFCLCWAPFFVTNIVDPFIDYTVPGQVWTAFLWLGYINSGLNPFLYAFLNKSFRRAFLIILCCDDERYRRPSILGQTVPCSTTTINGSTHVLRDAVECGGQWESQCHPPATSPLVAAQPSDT
Sequence of DRD3 wild-type (P35462 whole entry): as the sequence (P35462 whole entry) above

CCOc1cccc2cc([C@H](C)NCC3(O)CCCCC3)oc12 [O4SE6]
pEC50 ([1]; agonist, Gαi/o-mediated cAMP inhibition, read-out: EC50 ± SEM): 7.73 | G protein agonist activity ([1]; cAMP inhibition): selective DRD2 agonist | Emax ([1]; HEK-293T, read-out: Emax relative to quinpirole response, cAMP inhibition): 91.9% | pKi [2]: 6.09 | β-arrestin2 recruitment response, agonist mode (single replicate values) ([3]; Log[Drug] -8): 1.302 and -0.3873 and 2.074 and -2.101 and -1.406 and -2.308 and -1.812 and -0.8607 and -0.04463 | β-arrestin2 recruitment response, agonist mode (single replicate values) ([3]; Log[Drug] -8.52): 0.304 and 0.5074 and 1.87 and 1.981 and -1.055 and -1.27 and -1.358 and -1.238 and -0.4845 | β-arrestin2 recruitment response, agonist mode (single replicate values) ([3]; Log[Drug] -9): 0.9904 and 0.706 and 0.885 and 0.6945 and 9.325 and -1.862 and -2.066 and -0.6583 and 0.2247 | β-arrestin2 recruitment response, agonist mode (single replicate values) ([3]; Log[Drug] -9.52): 3.047 and -0.8801 and 2.567 and 4.29 and 2.342 and -1.433 and -1.621 and -2.0051 and -0.408 | β-arrestin2 recruitment response, agonist mode (single replicate values) ([3]; Log[Drug] -10): 4.819 and -0.0956 and 1.856 and -1.573 and -2.24 and -0.1941 and -0.1562 and -0.3459 and -1.4329 | β-arrestin2 recruitment response, agonist mode (single replicate values) ([3]; Log[Drug] -10.52): 0.4927 and 0.6104 and 0.5001 and 1.318 and -2.635 and -1.961 and -1.313 and -0.102 and -0.1036 | β-arrestin2 recruitment response, agonist mode (single replicate values) ([3]; Log[Drug] -11): 1.294 and -0.1888 and 1.488 and -1.416 and -3.18 and -0.3234 and -0.2837 and 1.1189 and -0.7348 | β-arrestin2 recruitment response, agonist mode (single replicate values) ([3]; Log[Drug] -11.52): 2.172 and 1.385 and 0.6864 and -1.406 and -1.13 and -0.05788 and -1.691 and -2.064 and -2.201 | β-arrestin2 recruitment response, agonist mode (single replicate values) ([3]; Log[Drug] -12): 0.3211 and 1.218 and -0.05883 and -2.747 and -2.758 and -0.03745 and -0.9037 and -1.7453 and 2.037 | Fig_S10j dose-response, drug alone (agonist mode), β-arrestin2 recruitment ([3]; Log[Drug] -5): 0.3849 and -0.983 and 0.7697 and -1.569 and -1.842 and 2.318 and -0.9197 and -0.3475 and -1.47 | Fig_S10j dose-response, drug alone (agonist mode), β-arrestin2 recruitment ([3]; Log[Drug] -5.52): 7.151 and 5.788 and -0.505 and -0.4698 and 0.6264 and -0.6469 and -1.685 and -0.2789 and -1.819 | Fig_S10j dose-response, drug alone (agonist mode), β-arrestin2 recruitment ([3]; Log[Drug] -6): 2.525 and 0.2795 and 1.682 and -0.463 and -1.025 and 2.25 and -2.251 and -0.6646 and -0.8511 | Fig_S10j dose-response, drug alone (agonist mode), β-arrestin2 recruitment ([3]; Log[Drug] -6.52): 3.045 and 0.7943 and 0.9757 and -1.712 and -2.09 and -1.297 and -2.011 and -0.3459 and -1.811 | Fig_S10j dose-response, drug alone (agonist mode), β-arrestin2 recruitment ([3]; Log[Drug] -7): 1.287 and -0.1961 and 3.15 and 1.852 and -1.692 and -1.42 and -0.2821 and 1.046 and -0.8687 | Fig_S10j dose-response, drug alone (agonist mode), β-arrestin2 recruitment ([3]; Log[Drug] -7.52): -0.2819 and 1.395 and 1.76 and -1.559 and -1.409 and -1.542 and -1.242 and 0.6631 and 0.4096 | β-arrestin2 recruitment response in presence of serotonin (replicate values) ([4]; Log[Drug] -6.52): 72.8962 | β-arrestin2 recruitment response (dose-response source data, replicate values) ([4]; Log[Drug] -6.52): 1.101 | β-arrestin2 recruitment response in presence of serotonin (replicate values) ([4]; Log[Drug] -7): 68.214 and 69.7519 and 58.0435 and 78.1719 and 67.5552 and 58.9312 and 58.5479 and 62.6911 and 62.3338 | β-arrestin2 recruitment response (dose-response source data, replicate values) ([4]; Log[Drug] -7): 0.5278 and 0.7799 and 0.9481 and 2.146 and 2.021 and 0.7677 and -0.1447 and -0.08084 and 0.1108 | β-arrestin2 recruitment response in presence of serotonin (replicate values) ([4]; Log[Drug] -7.52): 78.4713 and 70.1922 and 60.1136 and 64.4542 and 62.425 and 65.749 and 65.0234 and 67.6362 and 68.0461 | β-arrestin2 recruitment response (dose-response source data, replicate values) ([4]; Log[Drug] -7.52): 1.098 and 0.2279 and 1.538 and 2.02 and 1.183 and 1.483 and -0.2732 and 0.4713 and 0.304 | β-arrestin2 recruitment response in presence of serotonin (replicate values) ([4]; Log[Drug] -8): 79.2214 and 70.638 and 63.1387 and 67.7854 and 68.476 and 59.8854 and 62.949 and 70.8028 and 62.3669 | β-arrestin2 recruitment response (dose-response source data, replicate values) ([4]; Log[Drug] -8): 1.665 and 0.2788 and 1.143 and 1.476 and 0.7729 and 1.19 and -0.1116 and -0.1148 and 0.2053 | β-arrestin2 recruitment response in presence of serotonin (replicate values) ([4]; Log[Drug] -8.52): 63.0325 and 66.617 and 68.5815 and 61.4979 and 62.8385 and 69.3531 and 69.1189 and 65.2821 and 54.9164 | β-arrestin2 recruitment response (dose-response source data, replicate values) ([4]; Log[Drug] -8.52): 2.264 and 0.3266 and 1.143 (2×) and 0.899 and 0.9417 and -0.211 and 0.2724 and 0.6928 | β-arrestin2 recruitment response in presence of serotonin (replicate values) ([4]; Log[Drug] -9): 58.3354 and 69.9419 and 59.2835 and 65.9 and 67.9417 and 62.0583 and 73.9242 and 95.122 and 58.9489 | β-arrestin2 recruitment response (dose-response source data, replicate values) ([4]; Log[Drug] -9): 0.7979 and 0.203 and 1.266 and 0.9417 and 1.353 and 2.815 and 0.5659 and 0.7244 and 0.2029 | β-arrestin2 recruitment response in presence of serotonin (replicate values) ([4]; Log[Drug] -9.52): 62.0248 and 69.3453 and 57.8541 and 56.9479 and 71.0625 and 61.8156 and 76.4214 and 67.9653 and 74.0649 | β-arrestin2 recruitment response (dose-response source data, replicate values) ([4]; Log[Drug] -9.52): 0.3303 and 1.247 and 2.286 and 1.442 and 0.7292 and 1.103 and 0.01536 and 0.2716 and 0.5247 | β-arrestin2 recruitment response in presence of serotonin (replicate values) ([4]; Log[Drug] -10): 55.5618 and 63.9322 and 63.2088 and 69.7104 and 76.0792 and 67.2 and 78.0601 and 69.8546 and 82.4903 | β-arrestin2 recruitment response (dose-response source data, replicate values) ([4]; Log[Drug] -10): 0.4781 and 0.7712 and 1.0661 and 1.899 and 1.272 and 1.189 and -0.1148 and 0.1124 and 0.5271 | β-arrestin2 recruitment response in presence of serotonin (replicate values) ([4]; Log[Drug] -10.52): 62.9859 and 78.1652 and 74.7819 and 66.7635 and 61.4146 and 52.4937 and 74.1336 and 65.8957 and 89.463 | β-arrestin2 recruitment response (dose-response source data, replicate values) ([4]; Log[Drug] -10.52): 1.621 and 1.692 and 0.9661 and 0.6417 and 1.106 and 1.144 and 0.4066 and -0.08327 and 0.2078 | β-arrestin2 recruitment response in presence of serotonin (replicate values) ([4]; Log[Drug] -11): 82.0434 and 83.1157 and 82.0887 and 77.05 and 73.7271 and 49.1812 and 80.7368 and 81.7578 and 70.7931 | β-arrestin2 recruitment response (dose-response source data, replicate values) ([4]; Log[Drug] -11): 0.3285 and 0.5731 and 1.621 and 1.898 and 1.603 and 0.8979 and -0.2789 and 0.3428 and 0.1099 | β-arrestin2 recruitment response in presence of serotonin (replicate values) ([4]; Log[Drug] -11.52): 82.4482 and 79.2239 and 74.7068 and 70.1292 and 64.8323 and 73.1583 and 68.2329 and 84.5356 and 79.3843 | β-arrestin2 recruitment response (dose-response source data, replicate values) ([4]; Log[Drug] -11.52): 0.3061 and 0.7799 and 0.4241 and 1.31 and 1.564 and 0.9802 and 0.3743 and -0.1811 and 0.5651 | β-arrestin2 recruitment response in presence of serotonin (replicate values) ([4]; Log[Drug] -12): 88.7057 and 105.09 and 99.6448 and 69.9375 and 73.7219 and 66.8948 and 92.7613 and 90.5301 and 90.978 | β-arrestin2 recruitment response (dose-response source data, replicate values) ([4]; Log[Drug] -12): 1.557 and 0.8835 and 0.5619 and 0.6979 and 1.198 and 1.239 and 0.08246 and 0.08488 and 0.4382 | β-arrestin2 recruitment agonist activity ([5]; DRD3, Tango): no detectable agonist activity | pEC50 ([5]; DRD3, Tango, read-out: EC50 ± SEM): < 5.00 | response, concentration-response data point (replicates) ([5]; Log[Drug] -11): 0.5878 and 2.511 and 1.194 and 2.15 and 1.1907 and 4.631 and -3.875 and 11.6724 and 8.605 | response, concentration-response data point (replicates) ([5]; Log[Drug] -11.52): -0.276 and 0.7993 and -0.05881 and 1.198 and 0.07895 and 5.103 and 9.785 and 5.488 and 1.269 | response, concentration-response data point (replicates) ([5]; Log[Drug] -12): 1.3136 and 1.529 and -0.0652 and 0.03793 and 0.02727 and 3.808 and -3.9762 and 0.1686 and 1.294 | β-arrestin2 recruitment response at DRD3 (source data, replicate values) ([5]; Log[Drug] -6): 12.3452
